The values below come from patent US20220298213A1, “IN VIVO ENGINEERED CEREBLON PROTEIN” (Vividion Therapeutics, Inc., priority 2018, published 2022).

Format in all cases: binding
One assay concerns the target T1, CRBN Cys318 (Homo sapiens, UniProt Q96SW2).
T1 construct: endogenous in cells
Briefly: Inhibition of iodoacetamide probe labeling of CRBN cysteines, cell lysate (Table 3A). The following applies: for inhibition at 7.8 µM: 7.8 micromolar. As to the method: (§1) “X@Y” means that x % inhibition of iodoacetamide probe labeling was observed by treatment of cell lysate with the give compound in each row of the table for 1 h at a concentration of y micromolar. There was consistently high inhibition at C318 in addition to C287, which can be attributed to an allosteric inhibition.

A further assay concerns the target T2, CRBN Cys287 (Homo sapiens, UniProt Q96SW2).
T2 construct: endogenous in cells
The description is as above. Particulars: for inhibition at 500 µM / inhibition at 31.2 µM / inhibition at 125 µM / inhibition at 2 µM / inhibition at 0.49 µM: read-out: % inhibition of iodoacetamide probe labeling, Cys287; for inhibition at 7.8 µM: 7.8 micromolar. The procedure: as §1

The next assay concerns the target T3, CRBN Cys188 (Homo sapiens, UniProt Q96SW2).
T3 construct: endogenous in cells
The assay is described as above. Particulars: for inhibition at 125 µM: 125 micromolar. As to the method:
as §1

A further assay addresses T4, CRBN Cys366 (Homo sapiens, UniProt Q96SW2).
T4 construct: endogenous in cells
The description is as above. The procedure:
as §1

In a further assay the target is T5, CRBN Cys219 (Homo sapiens, UniProt Q96SW2).
T5 construct: endogenous in cells
T5 sequence (Q96SW2 whole entry): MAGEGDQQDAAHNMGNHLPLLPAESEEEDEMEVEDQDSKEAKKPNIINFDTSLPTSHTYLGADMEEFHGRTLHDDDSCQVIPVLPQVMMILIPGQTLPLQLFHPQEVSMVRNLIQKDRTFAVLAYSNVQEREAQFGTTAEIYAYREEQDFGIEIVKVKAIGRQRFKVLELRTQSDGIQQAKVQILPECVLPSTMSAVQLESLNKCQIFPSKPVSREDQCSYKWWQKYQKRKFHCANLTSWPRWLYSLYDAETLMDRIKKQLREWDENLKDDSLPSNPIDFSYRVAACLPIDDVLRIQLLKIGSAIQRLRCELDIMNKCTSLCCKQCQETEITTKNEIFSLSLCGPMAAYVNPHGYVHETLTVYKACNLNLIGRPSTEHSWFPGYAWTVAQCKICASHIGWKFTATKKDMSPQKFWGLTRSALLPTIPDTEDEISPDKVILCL
Described as above. Particulars: for inhibition at 500 µM: 500 micromolar. As to the method:
as §1

Another assay concerns the target T6, CRBN Cys234 (Homo sapiens, UniProt Q96SW2).
T6 construct: endogenous in cells
Described as above. Particulars: for inhibition at 500 µM: 500 micromolar; for inhibition at 500 µM / inhibition at 31.2 µM / inhibition at 125 µM: read-out: % inhibition of iodoacetamide probe labeling, Cys234. The procedure:
as §1

Another assay has as its target T7, CRBN Cys205 (Homo sapiens, UniProt Q96SW2).
T7 construct: endogenous in cells
The assay is described as above. The following applies: for inhibition at 500 µM: 500 micromolar; for inhibition at 500 µM / inhibition at 31.2 µM / inhibition at 125 µM: read-out: % inhibition of iodoacetamide probe labeling, Cys205. As to the method:
as §1

For the next assay, the target named is T8, CRBN_C287 (Homo sapiens, UniProt Q96SW2).
T8 construct: endogenous in cells; host or cells: cell lysate
T8 sequence (Q96SW2 whole entry): as above
As to the kind of experiment: CRBN C287 inhibition, probe labeling in lysate (Example 42). Particulars: 500 uM, lysate, 1 h; read-out: % inh @ 500 uM (CRBN_C287, lysate 1 h). As to the method: The following 96-well sample prep protocol was used for sample preparation.
Cells were resuspended in cold PBS on ice and sonicated with a probe sonicator to achieve lysis. 200 μL of lysate containing 5 mg/ml proteome was treated with 2 μL of 100× compound stock in a 2-mL deep-well plate. The treated lysate was subsequently incubate at 25° C. for 1 hr with shaking at 600 rpm. The treated lysate was further incubated with 2 μL of 10 mM desthiobiotin iodoacetamide probe at 25° C. for 1 hr with shaking at 600 rpm. […] 1.7 mL ice-cold acetone was added to each well and incubated at −20° C. for 2 hr, followed by max speed (4200 rpm) spin for 45 min. Acetone was then decanted and the plates were blotted to remove acetone. The plates were then dried in open air for 20 minutes. After drying, the plates were then covered with foil seal and stored at −80° C. overnight.
The next day, samples were re-suspended in 90 μL of solution of 9M urea, 50 mM ammonium bicarbonate and 10 mM DTT by incubating at 65° C. for 20 min with shaking at 1500 rpm. […] The samples were then incubated at 37° C. for 30 min with shaking at 600 rpm.
ZEBA desalting plates were equilibrated 4 times using 250 μL of 2M urea, 50 mM ammonium bicarbonate solution followed by centrifugation at 1500 rpm for 2 minutes. After equilibration was complete, samples were applied to ZEBA desalting plate and spin at 1500 rpm for 2 min on top of 1 mL 96-well deep-well collection plate to buffer exchange samples. 4 μL of solution containing 25 mM CaCl2 and 0.25 mg/mL trypsin was added to the plate and the plate was then incubated at 37° C. for 2 hrs with shaking at 600 rpm. 300 μL of solution containing 5% high-capacity streptavidin agarose slurry in 25 mM Tris-HCl pH 7.5, 150 mM NaCl, and 0.1% NP-40 then added. The plate was incubated at 25° C. for 2 hrs with shaking at 600 rpm. Samples were transferred to 25 μm filter plate and spin at 1000 rpm for 2 min. Samples were then washed 3 times with 0.75 mL of wash buffer (25 mM Tris-HCl pH 7.5, 150 mM NaCl, and 0.1% NP-40) followed by washing 3 times with 0.75 mL PBS, and then 4 times with 0.75 mL water. After the washing step, samples were eluted into polypropylene 96-well plate by addition of 250 μL of 50% MeCN/water, 0.1% formic acid and allowed to gravity drip for 10 min, followed by centrifugation at 1000 rpm for 2 min. Speedvac was used to dry the plates at about 45° C. for […]. Then the plates were covered with foil seal and stored at −20° C.
Then add 30 μL of 0.1% formic acid solution was added and the plate was covered and incubated at 42° C. for 10 minutes with shaking at 600 rpm. Seal plate was then sealed with a 96-well silicon mat for analysis.

The mark [1] stands for this setting: 50 micromolar, cell lysate, 1 h.
Setting [2] is: 31.2 micromolar, cell lysate, 1 h.
Setting [3] is: 500 micromolar, cell lysate, 1 h.
Where [4] appears, read: 500 micromolar, cell lysate, 1 h, read-out: % inhibition of iodoacetamide probe labeling, Cys318.
Setting [5] is: cell lysate, 1 h, read-out: % inhibition of iodoacetamide probe labeling, Cys219.
Where [6] appears, read: read-out: % inhibition of iodoacetamide probe labeling, Cys219.
Setting [7] is: 2.0 micromolar, cell lysate, 1 h.
Setting [8] is: 7.8 micromolar, cell lysate, 1 h.
Setting [9] is: 0.12 micromolar, cell lysate, 1 h.
Setting [10] is: 125 micromolar, cell lysate, 1 h.

Structures are written as SMILES. Like-named read-outs stand apart in the source and are kept apart here.

T6 sequence (Q96SW2 whole entry): as above
T7 sequence (Q96SW2 whole entry): as above
T3 sequence (Q96SW2 whole entry): as above
T1 sequence (Q96SW2 whole entry): as above
T2 sequence (Q96SW2 whole entry): as above
T4 sequence (Q96SW2 whole entry): as above

For the compound `COc1ccccc1-c1cc(C#N)cc(OC2CCN(C(=O)/C=C/CN(C)C)CC2)c1` [Al], the inhibition at 5 µM on CRBN Cys318 (5 micromolar, cell lysate, 1 h) was 43%; against CRBN Cys287 (5 micromolar, cell lysate, 1 h), 40%. In addition, the inhibition at 50 µM was 86% against CRBN Cys318 (setting [1]) and 90% at CRBN Cys287 (setting [1]). Also, the inhibition at 500 µM at CRBN Cys318 (read-out: % inhibition of iodoacetamide probe labeling, Cys318, 500 micromolar, cell lysate, 1 h) worked out at 95%; on CRBN Cys287 it was 97%.
Consider `COc1ccccc1-c1cc(C#N)cc(OC2CCN(C(=O)/C(C#N)=C/C(C)(C)C)CC2)c1` [Example A4], for which, at CRBN Cys287 (cell lysate, 1 h), the inhibition at 7.8 µM was 96%. Also, the inhibition at 31.2 µM at CRBN Cys287 (setting [2]) was 97%. Moreover, at CRBN Cys287 (setting [3]), the inhibition at 500 µM was found to be 99%. Also, at CRBN Cys287, the inhibition at 125 µM is 99%.
In the case of `C=CC(=O)N1CC(Oc2ccc(Cl)cc2)C1` [Example A3], the inhibition at 125 µM at CRBN Cys188 (cell lysate, 1 h) was 5%; on CRBN Cys318 (read-out: % inhibition of iodoacetamide probe labeling, Cys318, 125 micromolar, cell lysate, 1 h), 64%; on CRBN Cys366 (read-out: % inhibition of iodoacetamide probe labeling, Cys366), -6%; at CRBN Cys287 it was 80%; at CRBN Cys219 (setting [6]), 8%; on CRBN Cys234, 19%. For the same compound, the inhibition at 125 µM at CRBN Cys205 was 21%. Also, the inhibition at 500 µM was found to be 3% at CRBN Cys188 (setting [3]); 85% on CRBN Cys318 (setting [4]); 96% at CRBN Cys287 (setting [3]); 40% at CRBN Cys219 (setting [5]); 31% at CRBN Cys234 (cell lysate, 1 h); 15% on CRBN Cys205 (cell lysate, 1 h). In addition, the inhibition at 7.8 µM at CRBN Cys318 (cell lysate, 1 h) is 21%; at CRBN Cys287 (cell lysate, 1 h), 12%. The inhibition at 31.2 µM on CRBN Cys318 (read-out: % inhibition of iodoacetamide probe labeling, Cys318, 31.2 micromolar, cell lysate, 1 h) is 35%; on CRBN Cys287, 51%; on CRBN Cys219 (setting [6]), 19%; at CRBN Cys234 it was 6%; on CRBN Cys205, 7%.
As to `COc1ccccc1-c1cc(OC2CCN(C(=O)/C(C#N)=C/C(C)C)CC2)cc(C(N)=O)c1` [Example A5], the inhibition at 2 µM was 22% against CRBN Cys188 (setting [7]); 85% against CRBN Cys318 (setting [7]); 93% on CRBN Cys287 (setting [7]); 22% on CRBN Cys219 (setting [6]); 19% at CRBN Cys234 (setting [7]); 19% against CRBN Cys205 (setting [7]). Moreover, the inhibition at 7.8 µM against CRBN Cys188 (setting [8]) is 13%; against CRBN Cys318 (cell lysate, 1 h), 93%; on CRBN Cys366 (setting [8]) it was -22%; against CRBN Cys287 (cell lysate, 1 h) it was 96%; on CRBN Cys219 (setting [8]), 13%; at CRBN Cys234 (setting [8]), 35%. For the same compound, the inhibition at 7.8 µM against CRBN Cys205 (setting [8]) came out at 36%. Besides, the inhibition at 31.2 µM was 13% against CRBN Cys188 (setting [2]); 94% at CRBN Cys318 (31.2 micromolar, cell lysate, 1 h, read-out: % inhibition of iodoacetamide probe labeling, Cys318); 98% at CRBN Cys287 (setting [2]); 37% at CRBN Cys234 (setting [2]); 29% at CRBN Cys205 (setting [2]). The inhibition at 125 µM was 7% at CRBN Cys188 (cell lysate, 1 h); 95% at CRBN Cys318 (125 micromolar, cell lysate, 1 h, read-out: % inhibition of iodoacetamide probe labeling, Cys318); 99% at CRBN Cys287 (setting [10]); 25% at CRBN Cys219 (125 micromolar, cell lysate, 1 h, read-out: % inhibition of iodoacetamide probe labeling, Cys219); 60% on CRBN Cys234 (setting [10]); 37% at CRBN Cys205 (setting [10]). Further, the inhibition at 0.49 µM on CRBN Cys188 (read-out: % inhibition of iodoacetamide probe labeling, Cys188) is 17%; on CRBN Cys318 (read-out: % inhibition of iodoacetamide probe labeling, Cys318, 0.49 micromolar, cell lysate, 1 h) it was 76%; at CRBN Cys287, 83%; at CRBN Cys219 (0.49 micromolar, cell lysate, 1 h), 17%. In addition, the inhibition at 0.12 µM on CRBN Cys318 (setting [9]) was found to be 77%; at CRBN Cys287 (setting [9]) it was 70%. The inhibition at 500 µM was determined as 96% at CRBN Cys318 (setting [4]); 99% at CRBN Cys287 (setting [3]); 13% at CRBN Cys219 (setting [5]); 25% on CRBN Cys234 (cell lysate, 1 h); 31% on CRBN Cys205 (cell lysate, 1 h).
For the compound `CC(/C=C(\C#N)C(=O)N1CCC(Oc2cccc(C#N)c2)CC1)c1ccccc1` (stereo not drawn) [Example A6], the inhibition at 31.2 µM at CRBN Cys287 (setting [2]) came out at 82%. Moreover, the inhibition at 125 µM on CRBN Cys287 (setting [10]) stood at 94%. Besides, at CRBN Cys287 (setting [3]), the inhibition at 500 µM is 95%. Besides, on CRBN Cys287, the inhibition at 0.49 µM was 62% and the inhibition at 2 µM stood at 77%.
Consider `C=CC(=O)N1CCC(Oc2cccc(-c3ccccc3OCC)c2)CC1` [Example 2], for which, on CRBN_C287, the inhibition at 500 µM amounted to 59.8%.
Same read-out and setting: the value for `C=CC(=O)N1CCC(Oc2cccc(-c3ccccc3Cl)c2)CC1` [Example 4] was 64.8%.
